From ChEMBL document CHEMBL1201862, “PubChem BioAssay data set” (2004)
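These data come from cells grown in 96-well plates and exposed to compound for 48 hours at five concentrations. The concentration for 50% growth inhibition is given as GI50.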 Active and inactive are the calls of the source. No stated cut-off is given here; in the data, active = GI50 up to about 1.1 µM and inactive = higher.

How the values were obtained:
Test in all cases: growth of human tumour cells (NCI), 48 h
XF498 = system: XF498
Malme-3M = system: Malme-3M
RXF 631 = system: RXF 631
LXFL 529 = system: LXFL 529
SK-MEL-28 = system: SK-MEL-28
HOP-18 = system: HOP-18
HOP-92 = system: HOP-92
SF-539 = system: SF-539
A498 = system: A498
KM-20L2 = system: KM-20L2
IGROV-1 = system: IGROV-1
COLO 205 = system: COLO 205
TK-10 = system: TK-10
HT-29 = system: HT-29
CAKI-1 = system: CAKI-1
LOX IMVI = system: LOX IMVI
SN12C = system: SN12C
SF-268 = system: SF-268
EKVX = system: EKVX
RPMI-8226 = system: RPMI-8226
CCRF-CEM = system: CCRF-CEM
OVCAR-8 = system: OVCAR-8
KM12 = system: KM12
DLD-1 = system: DLD-1
DMS-114 = system: DMS-114
OVCAR-4 = system: OVCAR-4
HCC 2998 = system: HCC 2998
A549 = system: A549
SNB-78 = system: SNB-78
ACHN = system: ACHN
NCI-H23 = system: NCI-H23
DMS-273 = system: DMS-273
M14 = system: M14
SF-295 = system: SF-295
MOLT-4 = system: MOLT-4
NCI-H226 = system: NCI-H226
RXF 393 = system: RXF 393
U-251 = system: U-251
HCT-15 = system: HCT-15
SR = system: SR
UACC-257 = system: UACC-257
OVCAR-5 = system: OVCAR-5
SK-MEL-5 = system: SK-MEL-5
SK-MEL-2 = system: SK-MEL-2
NCI-H460 = system: NCI-H460
SW-620 = system: SW-620
SNB-75 = system: SNB-75
HCT-116 = system: HCT-116
SNB-19 = system: SNB-19
HL-60 = system: HL-60
UO-31 = system: UO-31
M19-MEL = system: M19-MEL
HOP-62 = system: HOP-62
K562 = system: K562
SK-OV-3 = system: SK-OV-3
NCI-H522 = system: NCI-H522
786-0 = system: 786-0
OVCAR-3 = system: OVCAR-3
UACC-62 = system: UACC-62

For ICC1CCCO1 (configuration not stated), the GI50 (XF498) was > 100 µM (inactive), the GI50 (Malme-3M) was > 100 µM (inactive) and the GI50 (RXF 631) was > 100 µM (inactive). The GI50 (LXFL 529) was > 100 µM (inactive), the GI50 (SK-MEL-28) was > 100 µM (inactive) and the GI50 (HOP-18) was > 100 µM (inactive). The GI50 (HOP-92) was > 100 µM (inactive), the GI50 (SF-539) was > 100 µM (inactive) and the GI50 (A498) was > 100 µM (inactive). The GI50 (KM-20L2) was > 100 µM (inactive), the GI50 (IGROV-1) was > 100 µM (inactive) and the GI50 (COLO 205) was > 100 µM (inactive). The GI50 (TK-10) was > 100 µM (inactive), the GI50 (HT-29) was > 100 µM (inactive) and the GI50 (CAKI-1) was > 100 µM (inactive). For the same molecule, the GI50 (LOX IMVI) was > 100 µM (inactive), the GI50 (SN12C) was > 100 µM (inactive) and the GI50 (SF-268) was > 100 µM (inactive). For the same molecule, the GI50 (EKVX) was > 100 µM (inactive), the GI50 (RPMI-8226) was > 100 µM (inactive) and the GI50 (CCRF-CEM) was > 100 µM (inactive). The GI50 (OVCAR-8) was > 100 µM (inactive), the GI50 (KM12) was > 100 µM (inactive) and the GI50 (DLD-1) was > 100 µM (inactive). The GI50 (DMS-114) was > 100 µM (inactive), the GI50 (OVCAR-4) was > 100 µM (inactive) and the GI50 (HCC 2998) was > 100 µM (inactive). The GI50 (A549) was > 100 µM (inactive), the GI50 (SNB-78) was > 100 µM (inactive) and the GI50 (ACHN) was > 100 µM (inactive). The GI50 (NCI-H23) was > 100 µM (inactive), the GI50 (DMS-273) was > 100 µM (inactive) and the GI50 (M14) was > 100 µM (inactive). For the same molecule, the GI50 (SF-295) was > 100 µM (inactive), the GI50 (MOLT-4) was > 100 µM (inactive) and the GI50 (NCI-H226) was > 100 µM (inactive). For the same molecule, the GI50 (RXF 393) was > 100 µM (inactive), the GI50 (U-251) was > 100 µM (inactive) and the GI50 (HCT-15) was > 100 µM. The GI50 (SR) was > 100 µM (inactive), the GI50 (UACC-257) was > 100 µM (inactive) and the GI50 (OVCAR-5) was > 100 µM (inactive). For the same molecule, the GI50 (SK-MEL-5) was > 100 µM (inactive), the GI50 (SK-MEL-2) was > 100 µM (inactive) and the GI50 (NCI-H460) was > 100 µM (inactive). The GI50 (SW-620) was > 100 µM (inactive), the GI50 (SNB-75) was > 100 µM (inactive) and the GI50 (HCT-116) was > 100 µM (inactive). The GI50 (SNB-19) was > 100 µM (inactive) and the GI50 (HL-60) was > 100 µM (inactive).
O=c1[nH]cc(COCCO)c(=O)[nH]1 was tested, and the GI50 (UO-31) was > 100 µM (inactive), the GI50 (XF498) was > 100 µM (inactive) and the GI50 (Malme-3M) was > 100 µM (inactive). For the same molecule, the GI50 (RXF 631) was > 100 µM (inactive), the GI50 (LXFL 529) was > 100 µM (inactive) and the GI50 (SK-MEL-28) was > 100 µM (inactive). The GI50 (HOP-18) was > 100 µM (inactive), the GI50 (M19-MEL) was > 100 µM (inactive) and the GI50 (HOP-92) was > 100 µM (inactive). The GI50 (SF-539) was > 100 µM (inactive), the GI50 (A498) was > 100 µM (inactive) and the GI50 (KM-20L2) was > 100 µM (inactive). The GI50 (IGROV-1) was > 100 µM (inactive), the GI50 (COLO 205) was > 100 µM (inactive) and the GI50 (HOP-62) was > 100 µM (inactive). For the same molecule, the GI50 (TK-10) was > 100 µM (inactive), the GI50 (HT-29) was > 100 µM (inactive) and the GI50 (CAKI-1) was > 100 µM (inactive). The GI50 (LOX IMVI) was > 100 µM (inactive), the GI50 (K562) was > 100 µM (inactive) and the GI50 (SN12C) was > 100 µM (inactive). The GI50 (SF-268) was > 100 µM (inactive), the GI50 (SK-OV-3) was > 100 µM (inactive) and the GI50 (EKVX) was > 100 µM (inactive). The GI50 (RPMI-8226) was > 100 µM (inactive), the GI50 (CCRF-CEM) was > 100 µM (inactive) and the GI50 (OVCAR-8) was > 100 µM (inactive). For the same molecule, the GI50 (KM12) was > 100 µM (inactive), the GI50 (DLD-1) was > 100 µM (inactive) and the GI50 (DMS-114) was > 100 µM (inactive). For the same molecule, the GI50 (OVCAR-4) was > 100 µM (inactive), the GI50 (A549) was > 100 µM (inactive) and the GI50 (SNB-78) was > 100 µM (inactive). For the same molecule, the GI50 (ACHN) was > 100 µM (inactive), the GI50 (NCI-H23) was > 100 µM (inactive) and the GI50 (DMS-273) was > 100 µM (inactive). The GI50 (NCI-H522) was > 100 µM (inactive), the GI50 (M14) was > 100 µM (inactive) and the GI50 (SF-295) was > 100 µM (inactive). For the same molecule, the GI50 (786-0) was > 100 µM (inactive), the GI50 (OVCAR-3) was > 100 µM (inactive) and the GI50 (MOLT-4) was > 100 µM (inactive). The GI50 (NCI-H226) was > 100 µM (inactive), the GI50 (RXF 393) was > 100 µM (inactive) and the GI50 (U-251) was > 100 µM (inactive). For the same molecule, the GI50 (HCT-15) was > 100 µM, the GI50 (UACC-257) was > 100 µM (inactive) and the GI50 (OVCAR-5) was > 100 µM (inactive). The GI50 (SK-MEL-5) was > 100 µM (inactive), the GI50 (SK-MEL-2) was > 100 µM (inactive) and the GI50 (NCI-H460) was > 100 µM (inactive). For the same molecule, the GI50 (SW-620) was > 100 µM (inactive), the GI50 (UACC-62) was > 100 µM (inactive) and the GI50 (SNB-75) was > 100 µM (inactive). For the same molecule, the GI50 (HCT-116) was > 100 µM (inactive), the GI50 (SNB-19) was > 100 µM (inactive) and the GI50 (HL-60) was > 100 µM (inactive).
